# PubChem BioAssay (NCI)
#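 Assay format: 96-well plates, 48-hour exposure. Here, GI50 denotes the concentration required for 50% inhibition of growth. The concentration for full growth arrest is given as TGI.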
# What was measured:
# Assay in all cases: DTP human tumour cell line panel, 48 h
# SNB-75 CNS = tested on: SNB-75 CNS
# OVCAR-4 ovarian = tested on: OVCAR-4 ovarian
# 786-0 renal = tested on: 786-0 renal
# SF-295 CNS = tested on: SF-295 CNS
# HL-60(TB) leukemia = tested on: HL-60(TB) leukemia
# KM12 colon = tested on: KM12 colon
# HCT-15 colon = tested on: HCT-15 colon
# HT29 colon = tested on: HT29 colon
# MCF7 breast = tested on: MCF7 breast
# MALME-3M melanoma = tested on: MALME-3M melanoma
# LOX IMVI melanoma = tested on: LOX IMVI melanoma
# HCC-2998 colon = tested on: HCC-2998 colon
# SF-268 CNS = tested on: SF-268 CNS
# A549 NSCLC = tested on: A549 NSCLC
# HOP-62 NSCLC = tested on: HOP-62 NSCLC
# SK-MEL-5 melanoma = tested on: SK-MEL-5 melanoma
# K-562 leukemia = tested on: K-562 leukemia
# SNB-19 CNS = tested on: SNB-19 CNS
# UO-31 renal = tested on: UO-31 renal
# BT-549 breast = tested on: BT-549 breast
# HOP-92 NSCLC = tested on: HOP-92 NSCLC
# T-47D breast = tested on: T-47D breast
# HS 578T breast = tested on: HS 578T breast
# MDA-MB-231 breast = tested on: MDA-MB-231 breast
# NCI-H23 lung = tested on: NCI-H23 lung
# NCI/ADR-RES ovarian = tested on: NCI/ADR-RES ovarian
# EKVX NSCLC = tested on: EKVX NSCLC
# RXF 393 renal = tested on: RXF 393 renal
# SF-539 CNS = tested on: SF-539 CNS
# DU-145 prostate = tested on: DU-145 prostate
# NCI-H460 lung = tested on: NCI-H460 lung
# TK-10 renal = tested on: TK-10 renal
# PC-3 prostate = tested on: PC-3 prostate
# RPMI-8226 leukemia = tested on: RPMI-8226 leukemia
# SK-MEL-2 melanoma = tested on: SK-MEL-2 melanoma
# U251 CNS = tested on: U251 CNS
# OVCAR-5 ovarian = tested on: OVCAR-5 ovarian
# SN12C renal = tested on: SN12C renal
# OVCAR-3 ovarian = tested on: OVCAR-3 ovarian
# IGROV1 ovarian = tested on: IGROV1 ovarian
# SK-MEL-28 melanoma = tested on: SK-MEL-28 melanoma
# UACC-62 melanoma = tested on: UACC-62 melanoma
# OVCAR-8 ovarian = tested on: OVCAR-8 ovarian
# NCI-H226 lung = tested on: NCI-H226 lung
# COLO 205 colon = tested on: COLO 205 colon
# HCT-116 colon = tested on: HCT-116 colon
# SW-620 colon = tested on: SW-620 colon
# ACHN renal = tested on: ACHN renal
# CAKI-1 renal = tested on: CAKI-1 renal
# MOLT-4 leukemia = tested on: MOLT-4 leukemia
# SK-OV-3 ovarian = tested on: SK-OV-3 ovarian
# NCI-H522 lung = tested on: NCI-H522 lung
# MDA-MB-435 = tested on: MDA-MB-435
# UACC-257 melanoma = tested on: UACC-257 melanoma
compound,measurement,setting,value
Nc1c(C(=O)N/N=C/c2ccco2)cnn1-c1ccnc2c(C(F)(F)F)cccc12,GI50,SNB-75 CNS,28.1 µM
same,TGI,SNB-75 CNS,97.7 µM
same,GI50,OVCAR-4 ovarian,33.5 µM
same,TGI,OVCAR-4 ovarian,> 100 µM
same,GI50,786-0 renal,43.6 µM
same,TGI,786-0 renal,> 100 µM
same,GI50,SF-295 CNS,38.7 µM
same,TGI,SF-295 CNS,> 100 µM
same,GI50,HL-60(TB) leukemia,25.8 µM
same,TGI,HL-60(TB) leukemia,49.5 µM
same,GI50,KM12 colon,31.9 µM
same,TGI,KM12 colon,75 µM
same,GI50,HCT-15 colon,18.5 µM
same,TGI,HCT-15 colon,33.1 µM
same,GI50,HT29 colon,19.8 µM
same,TGI,HT29 colon,38.8 µM
same,GI50,MCF7 breast,28 µM
same,TGI,MCF7 breast,65.4 µM
same,GI50,MALME-3M melanoma,73.3 µM
same,TGI,MALME-3M melanoma,> 100 µM
same,GI50,LOX IMVI melanoma,17.4 µM
same,TGI,LOX IMVI melanoma,31.2 µM
same,GI50,HCC-2998 colon,22.8 µM
same,TGI,HCC-2998 colon,48.5 µM
same,GI50,SF-268 CNS,31.6 µM
same,TGI,SF-268 CNS,91.6 µM
same,GI50,A549 NSCLC,> 100 µM
same,TGI,A549 NSCLC,> 100 µM
same,GI50,HOP-62 NSCLC,36.5 µM
same,TGI,HOP-62 NSCLC,> 100 µM
same,GI50,SK-MEL-5 melanoma,30 µM
same,TGI,SK-MEL-5 melanoma,> 100 µM
same,GI50,K-562 leukemia,24.2 µM
same,TGI,K-562 leukemia,49.1 µM
same,GI50,SNB-19 CNS,40.3 µM
same,TGI,SNB-19 CNS,> 100 µM
same,GI50,UO-31 renal,16.9 µM
same,TGI,UO-31 renal,33.7 µM
same,GI50,BT-549 breast,18.2 µM
same,TGI,BT-549 breast,40.7 µM
same,GI50,HOP-92 NSCLC,25.9 µM
same,TGI,HOP-92 NSCLC,80.8 µM
same,GI50,T-47D breast,39.5 µM
same,TGI,T-47D breast,> 100 µM
same,GI50,HS 578T breast,35.4 µM
same,TGI,HS 578T breast,89.1 µM
same,GI50,MDA-MB-231 breast,17.3 µM
same,TGI,MDA-MB-231 breast,38.9 µM
same,GI50,NCI-H23 lung,35 µM
same,TGI,NCI-H23 lung,> 100 µM
same,GI50,NCI/ADR-RES ovarian,20.6 µM
same,TGI,NCI/ADR-RES ovarian,41.5 µM
same,GI50,EKVX NSCLC,82.2 µM
same,TGI,EKVX NSCLC,> 100 µM
same,GI50,RXF 393 renal,22.7 µM
same,TGI,RXF 393 renal,43.7 µM
same,GI50,SF-539 CNS,19.4 µM
same,TGI,SF-539 CNS,41.2 µM
same,GI50,DU-145 prostate,18.3 µM
same,TGI,DU-145 prostate,36.5 µM
same,GI50,NCI-H460 lung,48.1 µM
same,TGI,NCI-H460 lung,> 100 µM
same,GI50,TK-10 renal,55.9 µM
same,TGI,TK-10 renal,> 100 µM
same,GI50,PC-3 prostate,19.3 µM
same,TGI,PC-3 prostate,49.1 µM
same,GI50,RPMI-8226 leukemia,19.9 µM
same,TGI,RPMI-8226 leukemia,54.2 µM
same,GI50,SK-MEL-2 melanoma,57.4 µM
same,TGI,SK-MEL-2 melanoma,> 100 µM
same,GI50,U251 CNS,20.5 µM
same,TGI,U251 CNS,40.5 µM
same,GI50,OVCAR-5 ovarian,23.3 µM
same,TGI,OVCAR-5 ovarian,61.6 µM
same,GI50,SN12C renal,20.2 µM
same,TGI,SN12C renal,55 µM
same,GI50,OVCAR-3 ovarian,17.8 µM
same,TGI,OVCAR-3 ovarian,39 µM
same,GI50,IGROV1 ovarian,25.4 µM
same,TGI,IGROV1 ovarian,80.1 µM
same,GI50,SK-MEL-28 melanoma,19.1 µM
same,TGI,SK-MEL-28 melanoma,36.8 µM
same,GI50,UACC-62 melanoma,35.9 µM
same,TGI,UACC-62 melanoma,> 100 µM
same,GI50,OVCAR-8 ovarian,24.2 µM
same,TGI,OVCAR-8 ovarian,57.1 µM
same,GI50,NCI-H226 lung,88.8 µM
same,TGI,NCI-H226 lung,> 100 µM
same,GI50,COLO 205 colon,24.9 µM
same,TGI,COLO 205 colon,53.8 µM
same,GI50,HCT-116 colon,18.2 µM
same,TGI,HCT-116 colon,32.2 µM
same,GI50,SW-620 colon,19.9 µM
same,TGI,SW-620 colon,37.3 µM
same,GI50,ACHN renal,38.6 µM
same,TGI,ACHN renal,> 100 µM
same,GI50,CAKI-1 renal,37.5 µM
same,TGI,CAKI-1 renal,> 100 µM
same,GI50,MOLT-4 leukemia,23.9 µM
same,TGI,MOLT-4 leukemia,63.5 µM
same,GI50,SK-OV-3 ovarian,86.4 µM
same,TGI,SK-OV-3 ovarian,> 100 µM
same,GI50,NCI-H522 lung,29.5 µM
same,TGI,NCI-H522 lung,> 100 µM
same,GI50,MDA-MB-435,26.2 µM
same,TGI,MDA-MB-435,75.3 µM
same,GI50,UACC-257 melanoma,95.3 µM
same,TGI,UACC-257 melanoma,> 100 µM
